How the values were obtained:
[1] = target: Human immunodeficiency virus type 1 protease (Human immunodeficiency virus 1, UniProt Q72874); test: Concentration required for in vitro inhibition of HIV-1 protease
[2] = system: CCRF-CEM; test: Concentration required for antiviral activity using infected CEM cells; type: functional, cell-based; conditions: Homo sapiens

SMILES	IC50 [1] [nM]	IC50 [2] [nM]
CC(C)(C)NC(=O)c1cc2ccccc2cc1C[C@@H](O)[C@H](Cc1ccccc1)NC(=O)[C@H](CC(N)=O)NC(=O)c1ccc2ccccc2n1	149	980
CC(C)(C)NC(=O)c1c(C[C@@H](O)[C@H](Cc2ccccc2)NC(=O)[C@H](CC(N)=O)NC(=O)c2ccc3ccccc3n2)ccc2ccccc12	3.5	190
Cc1cccc(C[C@@H](O)[C@H](Cc2ccccc2)NC(=O)[C@H](CC(N)=O)NC(=O)c2ccc3ccccc3n2)c1C(=O)NC(C)(C)C	28	920
Cc1ccc(C[C@@H](O)[C@H](Cc2ccccc2)NC(=O)[C@H](CC(N)=O)NC(=O)c2ccc3ccccc3n2)c(C(=O)NC(C)(C)C)c1	–	20
Cc1ccc(C(=O)NC(C)(C)C)c(C[C@@H](O)[C@H](Cc2ccccc2)NC(=O)[C@H](CC(N)=O)NC(=O)c2ccc3ccccc3n2)c1	2.2	610

Reference: ChEMBL document CHEMBL1151581, “New dipeptide isosteres useful for the inhibition of HIV-1 protease” (Bioorg Med Chem Lett, 1994)
